Measurements as given in patent US8507489B2, “Bicyclic triazoles as protein kinase modulators” (SGX Pharmaceuticals, Inc., priority 2006, dated 2013).

Legend:
TPR-MET Ba/F3 cells = molecular target: T1, TPR-MET Ba/F3 cells (Homo sapiens, UniProt P08581); experiment: 96-well XTT cell survival assay (Ba/F3 cells); format: cell-based; conditions: cells marked (BaF3), 72 hours; read-out: XTT Assay IC50 (BaF3)
T1 construct: TPR-MET Ba/F3 cells were created by stably transducing the human TPR-MET gene into Ba/F3 cells using a retroviral system; fused on or other part: P12270 (Nucleoprotein TPR)
T1 sequence (P08581 whole entry, change not shown, the tested form may be a part): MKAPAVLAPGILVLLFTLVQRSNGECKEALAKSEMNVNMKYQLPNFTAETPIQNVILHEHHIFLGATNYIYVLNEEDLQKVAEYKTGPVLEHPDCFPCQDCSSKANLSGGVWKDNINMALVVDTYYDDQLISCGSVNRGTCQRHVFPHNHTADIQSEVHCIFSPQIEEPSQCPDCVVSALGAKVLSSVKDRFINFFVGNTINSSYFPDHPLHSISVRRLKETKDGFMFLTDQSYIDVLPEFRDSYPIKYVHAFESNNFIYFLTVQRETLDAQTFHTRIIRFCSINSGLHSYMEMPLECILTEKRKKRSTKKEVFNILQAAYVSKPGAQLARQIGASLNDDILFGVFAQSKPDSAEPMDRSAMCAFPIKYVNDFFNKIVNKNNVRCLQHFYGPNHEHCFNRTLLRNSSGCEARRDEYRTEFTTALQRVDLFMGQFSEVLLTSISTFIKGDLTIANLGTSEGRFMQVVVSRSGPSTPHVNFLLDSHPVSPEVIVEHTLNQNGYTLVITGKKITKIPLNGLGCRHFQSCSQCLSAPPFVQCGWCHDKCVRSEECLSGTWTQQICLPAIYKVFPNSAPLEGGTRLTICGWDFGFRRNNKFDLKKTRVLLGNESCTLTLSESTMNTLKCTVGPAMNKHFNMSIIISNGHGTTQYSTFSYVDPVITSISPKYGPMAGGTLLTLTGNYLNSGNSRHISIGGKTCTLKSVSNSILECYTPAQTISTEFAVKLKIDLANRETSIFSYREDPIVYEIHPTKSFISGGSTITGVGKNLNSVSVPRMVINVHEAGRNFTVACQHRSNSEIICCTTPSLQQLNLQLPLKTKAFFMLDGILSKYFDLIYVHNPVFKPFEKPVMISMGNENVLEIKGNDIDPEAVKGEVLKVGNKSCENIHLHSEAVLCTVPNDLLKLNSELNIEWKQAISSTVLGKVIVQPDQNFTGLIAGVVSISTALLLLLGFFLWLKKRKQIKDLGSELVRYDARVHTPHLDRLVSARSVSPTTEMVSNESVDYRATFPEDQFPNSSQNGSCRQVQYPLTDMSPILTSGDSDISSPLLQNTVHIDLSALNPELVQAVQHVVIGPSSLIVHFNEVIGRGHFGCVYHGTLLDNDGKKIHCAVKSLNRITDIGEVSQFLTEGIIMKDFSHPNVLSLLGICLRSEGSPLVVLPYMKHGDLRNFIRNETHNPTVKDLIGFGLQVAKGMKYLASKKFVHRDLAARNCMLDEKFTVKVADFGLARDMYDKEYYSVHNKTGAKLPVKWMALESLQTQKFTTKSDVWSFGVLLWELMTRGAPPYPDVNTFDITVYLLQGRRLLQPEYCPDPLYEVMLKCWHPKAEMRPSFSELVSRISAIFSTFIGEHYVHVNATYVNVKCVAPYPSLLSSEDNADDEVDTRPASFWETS
Experimental: TPR-MET Ba/F3 cells were created by stably transducing the human TPR-MET gene into Ba/F3 cells using a retroviral system. All cell lines were grown in RPMI-1640 supplemented with 1× penicillin/streptomycin and 10% fetal bovine (Invitrogen, Carlsbad, Calif.). The cells were maintained in a 5% CO2 humidified incubator at 37° C.
Compounds were tested in the following assays in duplicate.
96-well XTT assay (Ba/F3 cells): Cells were grown in growth media containing various concentrations of compounds (duplicates) on a 96-well plate for 72 hours at 37° C. The starting cell number was 5000-8000 cells per well and volume was 120 μl. At the end of the 72-hour incubation, 40 μl of XTT labeling mixture (50:1 solution of sodium 3′-[1-(phenylamino-carbonyl)-3,4-tetrazolium]-bis(4-methoxy-6-nitro) benzene sulfonic acid hydrate and Electron-coupling reagent: PMS (N-methyl dibenzopyrazine methyl sulfate) were added to each well of the plate. After an additional 2-6 hours of incubation at 37° C., the absorbance reading at 405 nm with background correction at 650 nm was measured with a spectrophotometer.

c-MET = c-MET (Homo sapiens, UniProt P08581); experiment: MET luminescence-based enzyme assay (Kinase-Glo); format: biochemical
Chain of c-MET (P08581 1078-1345 limits assumed): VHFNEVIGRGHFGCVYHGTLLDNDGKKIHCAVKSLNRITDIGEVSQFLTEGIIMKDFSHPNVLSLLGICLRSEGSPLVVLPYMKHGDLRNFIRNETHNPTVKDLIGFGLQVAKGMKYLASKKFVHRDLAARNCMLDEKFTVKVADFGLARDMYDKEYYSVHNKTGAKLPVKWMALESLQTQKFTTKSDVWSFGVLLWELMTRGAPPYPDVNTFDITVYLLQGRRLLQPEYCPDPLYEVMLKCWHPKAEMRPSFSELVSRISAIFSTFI
Experimental: The subscript designates positive or negative controls. The Z′ score for a robust screening assay should be ≧0.50. The typical threshold=μ+−3*σ+. Any value that falls below the threshold was designated a “hit”.
MET Luminescence-Based Enzyme Assay
MET kinase (see below), Kinase-Glo™ (Promega Cat#V6712).
Negative controls contained 10 μM staurosporine.

Row | SMILES | IC50 (c-MET) | GI50 (TPR-MET Ba/F3 cells)
1 | CNC(=O)c1ccc(-c2ccc3nnc(Sc4ccc5ncn(C)c5c4)n3n2)cc1F [Compound 19, 2-Fluoro-N-methyl-4-[3-(3-methyl-3H-benzoimidazol-5-ylsulfanyl)-[1,2,4]triazolo[4,3-b]pyridazin-6-yl]-benzamide] | < 100 nM | ≤ 100 nM
2 | CNC(=O)c1ccc(-c2ccc3nnc(Sc4cc5scnc5cc4F)n3n2)cc1F [Compound 20] | < 100 nM | ≤ 100 nM

The next lines start with results.

Row | IC50 (c-MET) | SMILES | GI50 (TPR-MET Ba/F3 cells)
3 | < 100 nM | N#Cc1cccc(-c2ccc3nnc(Sc4ccc5ncsc5c4)n3n2)c1 [Compound 22, 3-[3-(Benzothiazol-6-ylsulfanyl)-[1,2,4]triazolo[4,3-b]pyridazin-6-yl]-benzonitrile] | 100 to 1000 nM
4 | < 100 nM | N#Cc1cccc(-c2ccc3nnc(Sc4cc5cccnc5cc4F)n3n2)c1 [Compound 23, 3-[3-(7-Fluoro-quinolin-6-ylsulfanyl)-[1,2,4]triazolo[4,3-b]pyridazin-6-yl]-benzonitrile] | ≤ 100 nM
5 | < 100 nM | N#Cc1cccc(-c2ccc3nnc(Sc4ccc5ncccc5c4)n3n2)c1 [Compound 21, 3-[3-(Quinolin-6-ylsulfanyl)-[1,2,4]triazolo[4,3-b]pyridazin-6-yl]-benzonitrile] | ≤ 100 nM
